Experimental findings from patent EP0117797A1, “Nitroso ureas, process for their preparation and their therapeutic use” (CENTRE NATIONAL DE LA RECHERCHE SCIENTIFIQUE, priority 1983, dated 1984) are described below.

Data set [1] has as its system cellules de leucémie L 1210. In words: Oncostatic activity against L 1210 leukaemia (i.p.) in mice, survival T/C. Type of data set: in vivo, souris F1, (DBA/2XC57 B 1/6). As to conditions: for Dose optimale / T/C max / M.E.D.I. / efficacité (comparison in words): L 1210 i.p.; for T/C max: treated days 1, 5 and 9, suspension in oil, T/C = ∞ when 50 % of the animals are cured, T/C > 125 % = active; for M.E.D.I.: dose plateau of maximum activity corresponding to T/C = ∞; for I = DL50 / D.Opt.: therapeutic index, DL50 divided by optimal dose; for efficacité (comparison in words): 2-chloro-éthylamides compared with the known -NH2 amides (N° 10, 14 et 16). The source says:
L'activité oncostatique de certains composés de l'invention par comparaison à d'autres nitrosourées connues a été déterminée en suivant le protocole expérimental suivant : • Des souris F1, (DBA/2XC57 B 1/6) sont inoculées avec 10^5 cellules de leucémie L 1210 par voie intrapéritonéale au jour 0 et divisées en 5 groupes. Le premier est le groupe de contrôle et les quatre autres sont traités avec les produits à tester à différentes concentrations, aux jours 1,5 et 9. Les composés sont injectés en suspension dans l'huile. La mortalité des animaux est observée et l'autopsie indique si elle est due à la leucémie ou à l'action toxique de la drogue. Les résultats, pour chaque dose de produit, sont exprimés en T/C (%) (T représente la médiane de survie du groupe traité et C la médiane de survie du groupe témoin T/C = ∞ quand 50 % des animaux sont guéris. T/C > 125 % signifie qu'une drogue est active.
Ces essais ont été effectués à l'aide de composés de formule [formula] pour différents amino-acides et différentes significations du substituant X (substituant côté C terminal).
Les significations de X sont les suivantes : • 1) Composés de l'invention : X = -NH-CH2-CH2Cl, -N(CH2-CH2-Cl)2 et -NH-C6H4-N(CH2-CH2-Cl)2 • 2) Composés en dehors de l'invention : X = -NH2 et -NH-C^H3.
Le tableau précédent rapporte les valeurs DL50, T/C, M.E.D.I. (Maximum efficace dose internal = plateau d'activité maximum correspondant à T/C = ∞), dose optimale et Indice thérapeutique.

A short description of data set [2]: Acute toxicity (DL50). The conditions noted are these: mouse, in vivo.

SMILES strings stand for the structures.

With `O=NN(CCCl)C(=O)N[C@@H](CC(=O)NCCCl)C(=O)NCCCl` [compound 3], in data set [1], the Dose optimale is recorded as 37 mg/kg, the T/C max entry is reported as “∞”, the M.E.D.I. fell in the range of 25 to 50 mg/kg and the “I = DL50 / D.Opt.” value is on record as 3,50. In data set [2], this molecule yielded an LD50 of 130 mg/kg.

For the molecule `C[C@H](NC(=O)N(CCCl)N=O)C(=O)NCCCl` [compound 1], in data set [1], the Dose optimale is on record as 20 mg/kg, the T/C max result was “∞”, the M.E.D.I. is 10 to 30 mg/kg and the “I = DL50 / D.Opt.” value is reported as 1,75. In data set [2], this molecule showed an LD50 of 35 mg/kg.

As for `CC(C)C[C@H](NC(=O)N(CCCl)N=O)C(=O)NCCCl` [compound 9], in data set [1], the “efficacité (comparison in words)” value is “beaucoup plus efficaces”, the Dose optimale is 35 mg/kg, the T/C max result is “∞” and the M.E.D.I. was in the range of 15 to 50 mg/kg. Moreover, the “I = DL50 / D.Opt.” value in data set [1] is recorded as 1,80. In data set [2], this molecule came in with an LD50 of 64 mg/kg.

Consider `O=NN(CCCl)C(=O)NCCC(=O)NCCCl` [compound 2], for which, in data set [1], the Dose optimale was determined as 35 mg/kg, the T/C max entry was “∞”, the M.E.D.I. lay within 20 to 50 mg/kg and the “I = DL50 / D.Opt.” value is given as 2,86. The molecule further yielded a DL50 in data set [2] of 100 mg/kg.

Turning to `O=NN(CCCl)C(=O)NCCCC(=O)NCCCl` [compound 7], in data set [1], the Dose optimale was found to be 35 mg/kg, the T/C max result is recorded as “∞”, the M.E.D.I. was in the range of 20 to 50 mg/kg and the “I = DL50 / D.Opt.” value is listed as 3,57. The DL50 in data set [2] is recorded as 125 mg/kg.

Turning to `CSCC[C@H](NC(=O)N(CCCl)N=O)C(=O)NCCCl` [compound 13], in data set [1], the “efficacité (comparison in words)” value is recorded as “beaucoup plus efficaces”, the Dose optimale came out at 20 mg/kg, the T/C max entry is “∞” and the M.E.D.I. was 10 to 30 mg/kg. Besides, in data set [1], the “I = DL50 / D.Opt.” value is given as 1,60. This molecule came in with an LD50 in data set [2] of 32 mg/kg.

As for `O=NN(CCCl)C(=O)NCCCC[C@H](NC(=O)N(CCCl)N=O)C(=O)NCCCl` [compound 12], in data set [1], the Dose optimale was determined as 30 mg/kg, the T/C max entry is “∞”, the M.E.D.I. lay in the range of 20 to 40 mg/kg and the “I = DL50 / D.Opt.” value was 4,50. Also, the median lethal dose (LD50) in data set [2] is 135 mg/kg.

The term LD50 denotes the dose expected to kill half of the subjects tested.
